From patent US20200262865A1, “COMPOSITIONS AND METHODS FOR TREATING CLOSTRIDIUM ASSOCIATED DISEASES” (REGENTS OF THE UNIVERSITY OF MINNESOTA, priority 2016, published 2020)
Where two headings read alike, the source gives them in different places.

Tests used:
NAP1 spores = test: Phase-contrast (microscope) spore count assay; type: cell-based, Clostridium difficile; settings: for Percent Spore Germination t20 / Percent Spore Germination Relative to control / Percent Spore Germination t0: 10 μM bile acid analog; for Percent Spore Germination t20 / Percent Spore Germination Relative to control / inhibitor of spore germination (rating in words from Table 1 data): 2000 μM taurocholic acid; for Percent Spore Germination t20 / Percent Spore Germination Relative to control: after 20 minutes; for Percent Spore Germination t0: time zero, before exposure to TCA; for inhibitor of spore germination (rating in words from Table 1 data): 10 μM, 20 minutes
[1] = system: Spores from a NAP1 strain of C. difficile; test: Optical density (OD600) C. difficile spore germination assay; type: cell-based, Clostridium difficile; settings: BHIS with 2000 μM TCA, OD600 over 20 minutes; for IC100: read-out: concentration giving essentially complete inhibition of spore germination
[2] = rat, in vivo; cited from earlier work
[3] = system: highly virulent NAP1 strain of C. difficile; settings: cited from earlier work
[4] = Clostridioides difficile, 20 min

CO[C@@H]1CC[C@@]2(C)[C@@H](C1)C[C@H](O)[C@@H]1[C@@H]2CC[C@]2(C)[C@@H]([C@H](C)CCc3nnn[n-]3)CC[C@@H]12.[Na+] [Example 15]
Percent Spore Germination t20 (NAP1 spores): 31 ± 4%
Percent Spore Germination Relative to control (NAP1 spores): 26 ± 4%
Percent Spore Germination t0 (NAP1 spores): 16 ± 4%
inhibitor of spore germination (rating in words from Table 1 data) (NAP1 spores): moderate inhibitors

CO[C@@H]1CC[C@@]2(C)[C@@H](C1)C[C@H](OS(=O)(=O)[O-])[C@@H]1[C@@H]2CC[C@]2(C)[C@@H]([C@H](C)CCC(=O)N3CCCC3)CC[C@@H]12.[Na+] [Example 7]
Percent Spore Germination t20 (NAP1 spores): 30 ± 6%
Percent Spore Germination Relative to control (NAP1 spores): 9 ± 5%
Percent Spore Germination t0 (NAP1 spores): 18 ± 2%
inhibitor of spore germination (rating in words from Table 1 data) (NAP1 spores): potent inhibitors

COC(=O)CC[C@@H](C)[C@H]1CC[C@H]2[C@@H]3[C@H](OC)C[C@@H]4C[C@H](O)CC[C@]4(C)[C@H]3CC[C@]12C [Comparative Example 14]
IC100 [1, 4]: 500 µM

COC(=O)CC[C@@H](C)[C@H]1CC[C@H]2[C@@H]3[C@@H](OC)C[C@@H]4C[C@H](O)CC[C@]4(C)[C@H]3CC[C@]12C [Comparative Example 11]
IC100 [1, 4]: 500 µM

CC(CCC(=O)O)C1CCC2C3C(OS(=O)(=O)O)CC4CC(O)CCC4(C)C3CCC12C (stereo not shown) [C7-sulfated UDCA]
absorption from the colon [2]: poorly absorbed

COC(=O)CC[C@@H](C)[C@H]1CC[C@H]2[C@@H]3C[C@H](O)[C@@H]4C[C@H](O)CC[C@]4(C)[C@H]3CC[C@]12C [Example 3]
IC100 [1, 4]: 500 µM

CO[C@@H]1CC[C@@]2(C)[C@@H](C1)C[C@@H](OS(=O)(=O)[O-])[C@@H]1[C@@H]2CC[C@]2(C)[C@@H]([C@H](C)CCc3nnn[n-]3)CC[C@@H]12.[Na+].[Na+] [Example 18]
Percent Spore Germination t20 (NAP1 spores): 48 ± 11%
Percent Spore Germination Relative to control (NAP1 spores): 51 ± 11%
Percent Spore Germination t0 (NAP1 spores): 20 ± 11%
inhibitor of spore germination (rating in words from Table 1 data) (NAP1 spores): moderate inhibitors
IC100 [1]: 25 µM

C[C@H](CCc1nnn[nH]1)[C@H]1CCC2C3C(CC[C@@]21C)[C@@]1(C)CC[C@@H](O)CC1C[C@@H]3O (stereo partly shown) [Example 12]
Percent Spore Germination t20 (NAP1 spores): 29 ± 4%
Percent Spore Germination Relative to control (NAP1 spores): 19 ± 4%
Percent Spore Germination t0 (NAP1 spores): 17 ± 4%
inhibitor of spore germination (rating in words from Table 1 data) (NAP1 spores): moderate inhibitors

CCCCNC(=O)CC[C@@H](C)[C@H]1CC[C@H]2[C@@H]3[C@@H](O)C[C@@H]4C[C@H](O)CC[C@]4(C)[C@H]3CC[C@]12C [Comparative Example 4]
IC100 [1, 4]: 500 µM

COC(=O)CC[C@@H](C)[C@H]1CC[C@H]2[C@@H]3[C@H](O)C[C@@H]4C[C@H](OC)CC[C@]4(C)[C@H]3CC[C@]12C [KLS-1-029D]
IC100 [1, 4]: 500 µM

CO[C@@H]1CC[C@@]2(C)[C@@H](C1)C[C@@H](O)[C@@H]1[C@@H]2CC[C@]2(C)[C@@H]([C@H](C)CCC(=O)O)CC[C@@H]12 [KLS-1-012B]
concentration giving partial inhibition of spore germination [1]: 0.1 mM

C[C@H](CCC(=O)Nc1cccc(S(=O)(=O)O)c1)[C@H]1CC[C@H]2[C@@H]3[C@H](O)C[C@@H]4C[C@H](O)CC[C@]4(C)[C@H]3C[C@H](O)[C@]12C [CamSA]
efficacy at inhibiting germination [3]: very little efficacy

CO[C@@H]1CC[C@@]2(C)[C@@H](C1)C[C@H](OS(=O)(=O)[O-])[C@@H]1[C@@H]2CC[C@]2(C)[C@@H]([C@H](C)CCc3nnn[n-]3)CC[C@@H]12.[Na+].[Na+] [Example 17]
Percent Spore Germination t20 (NAP1 spores): 44 ± 3%
Percent Spore Germination Relative to control (NAP1 spores): 42 ± 3%
Percent Spore Germination t0 (NAP1 spores): 21 ± 3%
inhibitor of spore germination (rating in words from Table 1 data) (NAP1 spores): moderate inhibitors

CC(=O)O[C@@H]1CC[C@@]2(C)[C@@H](C1)C[C@@H](OC(C)=O)[C@@H]1[C@@H]2CC[C@]2(C)[C@@H]([C@H](C)CCC(N)=O)CC[C@@H]12 [Comparative Example 20]
IC100 [1, 4]: 50 µM

C[C@H](CCC(=O)N1CCCC1)[C@H]1CC[C@H]2[C@@H]3[C@H](O)C[C@@H]4C[C@H](O)CC[C@]4(C)[C@H]3CC[C@]12C [Example 2]
IC100 [1, 4]: 100 µM

CO[C@@H]1CC[C@@]2(C)[C@@H](C1)C[C@@H](O)[C@@H]1[C@@H]2CC[C@]2(C)[C@@H]([C@H](C)CCc3nnn[n-]3)CC[C@@H]12.[Na+] [Example 16]
Percent Spore Germination t20 (NAP1 spores): 21 ± 4%
Percent Spore Germination Relative to control (NAP1 spores): 8 ± 4%
Percent Spore Germination t0 (NAP1 spores): 16 ± 4%
inhibitor of spore germination (rating in words from Table 1 data) (NAP1 spores): potent inhibitors
IC100 [1]: 5 µM

COC(=O)CC[C@@H](C)[C@H]1CC[C@H]2[C@@H]3[C@@H](O)C[C@@H]4C[C@H](OC)CC[C@]4(C)[C@H]3CC[C@]12C [KLS-1-031C]
IC100 [1, 4]: 500 µM

CO[C@@H]1CC[C@@]2(C)[C@@H](C1)C[C@H](O)[C@@H]1[C@@H]2CC[C@]2(C)[C@@H]([C@H](C)CCC(=O)O)CC[C@@H]12 [KLS-1-014B]
concentration giving partial inhibition of spore germination [1]: 0.50 mM

CCCCNC(=O)CC[C@@H](C)[C@H]1CC[C@H]2[C@@H]3[C@H](O)C[C@@H]4C[C@H](O)CC[C@]4(C)[C@H]3CC[C@]12C [Comparative Example 3]
IC100 [1, 4]: 500 µM

CO[C@H]1C[C@@H]2C[C@H](O)CC[C@]2(C)[C@H]2CC[C@]3(C)[C@@H]([C@H](C)CCC(=O)O)CC[C@H]3[C@H]12 [Comparative Example 10, reference compound]
Percent Spore Germination t20 (NAP1 spores): 71 ± 2%
Percent Spore Germination Relative to control (NAP1 spores): 75 ± 2%
Percent Spore Germination t0 (NAP1 spores): 25 ± 4%
inhibitor of spore germination (rating in words from Table 1 data) (NAP1 spores): weak inhibitors
concentration giving partial inhibition of spore germination [1]: 0.5 mM

C[C@H](CCC(=O)N1CCCC1)[C@H]1CC[C@H]2[C@@H]3[C@@H](O)C[C@@H]4C[C@H](O)CC[C@]4(C)[C@H]3CC[C@]12C [Example 1]
IC100 [1, 4]: 100 µM

COC(=O)CC[C@@H](C)[C@H]1CC[C@H]2[C@@H]3[C@@H](O)C[C@@H]4C[C@H](O)CC[C@]4(C)[C@H]3CC[C@]12C [Comparative Example 2]
IC100 [1, 4]: 100 µM

C[C@H](CCc1nnn[n-]1)[C@H]1CC[C@H]2[C@@H]3[C@H](O)C[C@@H]4C[C@H](O)CC[C@]4(C)[C@H]3CC[C@]12C.[Na+] [Example 14]
Percent Spore Germination t20 (NAP1 spores): 22 ± 6%
Percent Spore Germination Relative to control (NAP1 spores): 12 ± 6%
Percent Spore Germination t0 (NAP1 spores): 15 ± 6%
inhibitor of spore germination (rating in words from Table 1 data) (NAP1 spores): potent inhibitors
IC100 [1]: 10 µM

C[C@H](CCC1=NC(C)(C)CO1)[C@H]1CC[C@H]2[C@@H]3[C@@H](O)C[C@@H]4C[C@H](O)CC[C@]4(C)[C@H]3CC[C@]12C [Example 9]
IC100 [1, 4]: 500 µM

CO[C@@H]1CC[C@@]2(C)[C@@H](C1)C[C@H](OC)[C@@H]1[C@@H]2CC[C@]2(C)[C@@H]([C@H](C)CCC(=O)O)CC[C@@H]12 [KLS-1-014A]
concentration giving partial inhibition of spore germination [1]: 1.0 mM

COC(=O)CC[C@@H](C)[C@H]1CC[C@H]2[C@@H]3[C@H](O)C[C@@H]4C[C@H](O)CC[C@]4(C)[C@H]3CC[C@]12C [Comparative Example 1, reference compound]
Percent Spore Germination t20 (NAP1 spores): 71 ± 1%
Percent Spore Germination Relative to control (NAP1 spores): 73 ± 1%
Percent Spore Germination t0 (NAP1 spores): 25 ± 6%
inhibitor of spore germination (rating in words from Table 1 data) (NAP1 spores): weak inhibitors
IC100 [1, 4]: 500 µM
